Reference: ChEMBL document CHEMBL1156451 (J Biol Chem, 2007)
≈ marks a conversion by molar mass, not a printed value. Calls of active or inactive are those of the source. The calls are words filed in the database; no cut-off is given here. Where a SMILES comes first, the peptide text is derived from it.

Key:
Escherichia coli [1] = assay: Effect on morphology in Escherichia coli K12 ATCC 23716 assessed as formation of high electrodense clusters at 20 uM after 30 mins by transmission electron microscopy; type: functional, organism-based
HeLa [2] = assay: Cytotoxicity against human HeLa cells at 100 ug/ml after 24 hrs by MTT assay relative to control; type: functional
HeLa [3] = assay: Cytotoxicity against human HeLa cells at 100 ug/ml after 24 hrs by neutral red uptake assay relative to control; type: functional
[4] = Toxicity in human erythrocytes assessed as hemolysis; type: cell-based; details: erythrocyte
Escherichia coli [5] = assay: Antibacterial activity against Escherichia coli ATCC 25922 after 24 hrs in Mueller-Hinton broth medium; type: functional; details: ATCC 25922, 24 h
Acinetobacter baumannii = assay: Antibacterial activity against Acinetobacter baumannii ATCC 19606 after 24 hrs in Mueller-Hinton broth medium; type: functional; details: ATCC 19606, 24 h
[6] = tested on: Bordetella bronchiseptica; assay: Antibacterial activity against Bordetella bronchiseptica CUN 11844-99 after 24 hrs in Mueller-Hinton broth medium; type: functional
Brucella abortus [7] = assay: Antibacterial activity against Brucella abortus 9.49 (per-) after 48 hrs in Mueller-Hinton broth medium; type: functional
Pseudomonas aeruginosa = assay: Antibacterial activity against Pseudomonas aeruginosa CUN 4158-02 after 24 hrs in Mueller-Hinton broth medium; type: functional
Staphylococcus aureus = assay: Antibacterial activity against methicillin-resistant Staphylococcus aureus ATCC 43300 after 24 hrs in Mueller-Hinton broth medium; type: functional; details: ATCC 43300, 24 h
Brucella abortus [8] = assay: Antibacterial activity against Brucella abortus 9.19 (per-) after 24 hrs in Mueller-Hinton broth medium; type: functional
Escherichia coli [9] = assay: Antibacterial activity against Escherichia coli K12 ATCC 23716 after 24 hrs in Mueller-Hinton broth medium; type: functional; details: K12, 24 h
Escherichia coli [10] = assay: Antibacterial activity against Escherichia coli K12 ATCC 23716 in 10% Luria-Bertani medium/90% Hepes buffer at pH 7.0; type: functional
Escherichia coli [11] = assay: Effect on morphology in Escherichia coli K12 ATCC 23716 assessed as detachment of outer membrane from inner membrane at 4 uM after 30 mins by transmission electron microscopy; type: functional, organism-based

Row | SMILES | Activity (HeLa [2]) | Activity (HeLa [3]) | Activity [4] | MBC (Escherichia coli [5]) | MIC (Escherichia coli [5]) | MBC (Acinetobacter baumannii) | MIC (Acinetobacter baumannii) | MBC [6] | MIC [6] | MIC (Brucella abortus [7]) | MBC (Pseudomonas aeruginosa) | MIC (Pseudomonas aeruginosa) | MBC (Staphylococcus aureus) | MIC (Staphylococcus aureus) | MBC (Brucella abortus [8]) | MBC (Escherichia coli [9]) | MIC (Escherichia coli [9]) | MBC (Escherichia coli [10]) | MIC (Escherichia coli [10]) | also measured
1 | CC[C@H](C)[C@H](NC(=O)[C@H](CCCNC(=N)N)NC(=O)[C@H](CCCNC(=N)N)NC(=O)[C@H](CC(C)C)NC(=O)[C@H](Cc1ccccc1)NC(=O)[C@@H](NC(=O)[C@H](CCCNC(=N)N)NC(=O)[C@H](CCSC)NC(=O)[C@@H](NC(=O)[C@H](CCCCN)NC(=O)[C@H](CCCCN)NC(=O)[C@H](CS)NC(=O)[C@@H](NC(=O)CNC(=O)[C@H](CCCNC(=N)N)NC(=O)[C@H](CC(C)C)NC(=O)[C@@H](NC(=O)[C@@H](N)CCCCN)[C@@H](C)CC)C(C)C)[C@@H](C)CC)[C@@H](C)O)C(=O)N[C@@H](CO)C(=O)N[C@@H](CCCCN)C(=O)N[C@@H](CC(=O)O)C(=O)N[C@H](C(=O)N[C@@H](CC(C)C)C(=O)N[C@H](C(=O)NCC(=O)N[C@@H](CCCCN)C(=O)N[C@@H](CCCCN)C(=O)O)[C@@H](C)O)[C@@H](C)CC (H-KILRGVCKKIMRTFLRRISKDILTGKK-OH) | 28.7% | 31.6% | Toxic | 16 µg/mL (≈ 5 µM) | 16 µg/mL (≈ 5 µM) | 2 µg/mL (≈ 0.624 µM) | 2 µg/mL (≈ 0.624 µM) | 4 µg/mL (≈ 1.25 µM) | 4 µg/mL (≈ 1.25 µM) | 32 µg/mL (≈ 9.99 µM) | 32 µg/mL (≈ 9.99 µM) | 32 µg/mL (≈ 9.99 µM) | 256 µg/mL (≈ 79.9 µM) | 256 µg/mL (≈ 79.9 µM) | 32 µg/mL (≈ 9.99 µM) | 0.25 µg/mL (≈ 0.078 µM) | 0.25 µg/mL (≈ 0.078 µM) | 32 µg/mL (≈ 9.99 µM) | 16 µg/mL (≈ 5 µM) | Activity (Escherichia coli [1]): Active; Activity (Escherichia coli [11]): Active
2 | CC[C@H](C)[C@H](NC(=O)[C@H](CCCCN)NC(=O)[C@H](CCCCN)NC(=O)[C@H](CO)NC(=O)[C@@H](NC(=O)CNC(=O)[C@H](CCCNC(=N)N)NC(=O)[C@H](CC(C)C)NC(=O)[C@@H](NC(=O)[C@@H](N)CCCCN)[C@@H](C)CC)C(C)C)C(=O)N[C@@H](CCSC)C(=O)N[C@@H](CCCNC(=N)N)C(=O)N[C@H](C(=O)N[C@@H](Cc1ccccc1)C(=O)N[C@@H](CC(C)C)C(=O)N[C@@H](CCCNC(=N)N)C(=O)N[C@@H](CCCNC(=N)N)C(=O)N[C@H](C(=O)N[C@@H](CC(C)C)C(=O)N[C@H](C(=O)NCC(=O)N[C@@H](CCCCN)C(=O)N[C@@H](CCCCN)C(N)=O)[C@@H](C)O)[C@@H](C)CC)[C@@H](C)O (H-KILRGVSKKIMRTFLRRILTGKK-NH2) | inactive | – | Toxic | 4 µg/mL (≈ 1.46 µM) | 4 µg/mL (≈ 1.46 µM) | 4 µg/mL (≈ 1.46 µM) | 4 µg/mL (≈ 1.46 µM) | 2 µg/mL (≈ 0.729 µM) | 2 µg/mL (≈ 0.729 µM) | 4 µg/mL (≈ 1.46 µM) | 4 µg/mL (≈ 1.46 µM) | 4 µg/mL (≈ 1.46 µM) | 256 µg/mL (≈ 93.3 µM) | 64 µg/mL (≈ 23.3 µM) | 4 µg/mL (≈ 1.46 µM) | 8 µg/mL (≈ 2.92 µM) | 8 µg/mL (≈ 2.92 µM) | 25 µg/mL (≈ 9.12 µM) | 19 µg/mL (≈ 6.93 µM) | –
3 | CC[C@H](C)[C@H](NC(=O)[C@H](CCCNC(=N)N)NC(=O)[C@H](CCCNC(=N)N)NC(=O)[C@H](CC(C)C)NC(=O)[C@H](Cc1ccccc1)NC(=O)[C@@H](NC(=O)[C@H](CCCNC(=N)N)NC(=O)[C@H](CCSC)NC(=O)[C@@H](NC(=O)[C@H](CCCCN)NC(=O)[C@H](CCCCN)NC(=O)[C@H](CO)NC(=O)[C@@H](NC(=O)CNC(=O)[C@H](CCCNC(=N)N)NC(=O)[C@H](CC(C)C)NC(=O)[C@@H](NC(=O)[C@@H](N)CCCCN)[C@@H](C)CC)C(C)C)[C@@H](C)CC)[C@@H](C)O)C(=O)N[C@@H](CO)C(=O)N[C@@H](CCCCN)C(=O)N[C@@H](CC(=O)O)C(=O)N[C@H](C(=O)N[C@@H](CC(C)C)C(=O)N[C@H](C(=O)NCC(=O)N[C@@H](CCCCN)C(=O)N[C@@H](CCCCN)C(N)=O)[C@@H](C)O)[C@@H](C)CC (H-KILRGVSKKIMRTFLRRISKDILTGKK-NH2) | 38.4% | 24.8% | Toxic | 4 µg/mL (≈ 1.26 µM) | 4 µg/mL (≈ 1.26 µM) | 2 µg/mL (≈ 0.628 µM) | 2 µg/mL (≈ 0.628 µM) | 4 µg/mL (≈ 1.26 µM) | 4 µg/mL (≈ 1.26 µM) | 2 µg/mL (≈ 0.628 µM) | 4 µg/mL (≈ 1.26 µM) | 4 µg/mL (≈ 1.26 µM) | 128 µg/mL (≈ 40.2 µM) | 128 µg/mL (≈ 40.2 µM) | 4 µg/mL (≈ 1.26 µM) | 2 µg/mL (≈ 0.628 µM) | 2 µg/mL (≈ 0.628 µM) | 16 µg/mL (≈ 5.02 µM) | 8 µg/mL (≈ 2.51 µM) | –
